Holding throughout (assay type): cell-based, human
In one experiment the test system is HL-60/ADR. Briefly: In vitro cytotoxic activity, MTS assay; resistance index. Conditions: HL-60/ADR vs sensitive HL-60 (doxorubicin resistance). The method, then:
(§1) Tumor cells were grown as adherent monolayers or as suspensions at 37° C. in a humidified atmosphere (5% CO2, 95% air). The culture medium was RPMI 1640 containing 2 mM L-glutamine (Lonza, Belgium) and supplemented with 10% fetal bovine serum (FBS, Lonza). For experimental use, the adherent cells were detached from the culture flask by a 5-minute treatment with trypsin-versene (Lonza), diluted in Hanks' medium without calcium or magnesium (Lonza) and neutralized by addition of complete culture medium. Cells were counted in a hemocytometer and their viability was assessed by 0.25% trypan blue exclusion.
(§2) Tumor cells were plated in 96-well flat-bottom microtitration plates (Nunc, Dutscher, Brumath, France) and incubated at 37° C. for 24 hours before treatment in 190 μl of drug-free culture medium supplemented or not with 10% FBS for adherent or suspension growing cell lines, respectively.
(§3) The adherent cell lines were washed once with 200 μl FBS-free culture medium before treatment. Tumor cells were incubated for 4 hours with 10 concentrations of compounds in ¼ dilution step with a top dose of 400 μM (range 4×10^−4 to 4×10^−10 M), with 1% (final concentration) Triton X-100 as positive control and FBS-free culture medium as negative control. The cells (190 μl) were incubated in a 200 μl final volume of FBS-free culture medium containing test substances at 37° C. under 5% CO2.
(§4) Three independent experiments were performed, each concentration being tested in quadruplicate. Control cells were treated with vehicle alone. At the end of treatments, the cytotoxic activity was evaluated by a MTS assay (see § 3.3).
(§5) Like MTT, MTS is bioreduced by cells into a formazan product that is directly soluble in culture medium without processing, unlike MTT.
(§6) At the end of the cells treatment, 40 μl of a 0.22 μm filtered freshly combined solution of MTS (20 ml at 2 mg/ml, Ref G1111, Batch 235897, Exp 03/2009, Promega, Charbonnières, France) and PMS (1 ml at 0.92 mg/ml, Ref P9625, Batch 065K0961, Sigma) in Dulbecco's Phosphate Buffered Saline (DPBS, Ref 17-513Q, Batch 6MB0152, Cambrex), were added in each well. Culture plates were incubated for 2 h at 37° C. Absorbency (OD) were measured at 490 nm in each well using VICTOR^3TM 1420 multilabeled counter (Wallac, PerkinElmer, Courtaboeuf, France).
(§7) [formula] • The OD values are the mean of 4 experimental measurements. • IC50: drug concentration to obtain a 50% inhibition of cell proliferation.
(§8) The dose-response curves were plotted using XLFit 3 (IDBS, United Kingdom). The IC50 determination values were calculated using the XLFit 3 software from semi-log curves. Individual IC50 determination values as well as mean and SD values were generated.
(§9) Resistance index was calculated using the following formula: […]
(§10) Resistance index was calculated for each compound for each couple of sensitive and resistant cell lines. Individual resistance index was calculated when IC50 values of both sensitive and corresponding resistant cell lines were determined within same experiment. In addition, resistance index was also calculated ratio of mean IC50 values obtained during three independent experiments.

The subject of the next experiment is MCF-7/mdr. Conditions: MCF-7/mdr vs sensitive MCF-7 (doxorubicin resistance). The method, then: as §1, §2, §3, §4, §5, §6, §7, §8, §9, §10
For the next experiment, the system named is IGROV-1/CDDP. Conditions: IGROV-1/CDDP vs IGROV-1 (cisplatin resistance). The method, then: as §1, §2, §3, §4, §5, §6, §7, §8, §9, §10
In the next experiment the test system is CCRF-CEM/VLB. Briefly: Resistance index from MTS cytotoxicity. The following applies: CCRF-CEM/VLB vs CCRF-CEM. On the procedure: as §1, with “exclusion. […]” for “exclusion.”
Three independent experiments were performed, each concentration being tested in quadruplicate. […] At the end of treatments, the cytotoxic activity was evaluated by a MTS assay (see § 3.3). […]
At the end of the cells treatment, 40 μl of a 0.22 μm filtered freshly combined solution of MTS (20 ml at 2 mg/ml, Ref G1111, Batch 235897, Exp 03/2009, Promega, Charbonnières, France) and PMS (1 ml at 0.92 mg/ml, Ref P9625, Batch 065K0961, Sigma) in Dulbecco's Phosphate Buffered Saline (DPBS, Ref 17-513Q, Batch 6MB0152, Cambrex), were added in each well. […] Absorbency (OD) were measured at 490 nm in each well using VICTOR^3TM 1420 multilabeled counter (Wallac, PerkinElmer, Courtaboeuf, France). […]
as §9

A further experiment relates to A375 cells. Briefly: Confocal microscopy, fluorescence-labeled peptide internalization. The following applies: 1.5 and 3 μM. On the procedure:
Fixed cells, fluorescence-labeled peptide-Subconfluential A375 cells were seeded at 8,000 cells/well as above, and transfected on the second day using the Lipofectamine LTX with Plus transfection reagents (Invitrogen) following the manufacturer's protocol. The mitochondria were labeled using the pDsRed2-Mito, and the nucleus was labeled using the GFP-Histon2B plasmid (Imaging Platform, University of Tromsø). A day after transfection, cells were washed twice with serum-free RPMI, and treated at different concentration and incubation periods with LTX-315 Pacific Blue or LTX-328 Pacific Blue.
Control cells were treated with unlabeled LTX-315 and also with serum-free RPMI only. After incubation, cells were fixed with 4% paraformaldehyde in PBS, and the wells were covered with Prolong Gold antifade (Invitrogen). Cells were further analyzed by use of a Leica TCS SP5 confocal microscope, with a […] objective. Pacific Blue, GFP and Ds Red were excited using UV, with 488 and 561 lasers, and fluorescence channels were sequentially detected using the following band passes: UV: 420-480 nm (with attenuation), 488: 501-550 nm and 561: 576-676 nm.

Non-standard residues stand in square brackets, D forms with d. Residues, ends and D or L forms follow the SMILES beside them. No end group written: not given here. Bip = N[C@@H](Cc1ccc(-c2ccccc2)cc1)C(=O)O; dBip = N[C@H](Cc1ccc(-c2ccccc2)cc1)C(=O)O; Dip = N[C@H](C(=O)O)C(c1ccccc1)c1ccccc1

Regarding `NCCCC[C@H](NC(=O)[C@H](Cc1c[nH]c2ccccc12)NC(=O)[C@H](CCCCN)NC(=O)[C@H](CCCCN)NC(=O)[C@@H](NC(=O)[C@H](Cc1c[nH]c2ccccc12)NC(=O)[C@H](CCCCN)NC(=O)[C@H](CCCCN)NC(=O)[C@@H](N)Cc1c[nH]c2ccccc12)C(c1ccccc1)c1ccccc1)C(N)=O` [LTX-302, W-K-K-W-Dip-K-K-W-K-NH2] (H-WKKW[Dip]KKWK-NH2; N-terminus assumed), the “Resistance index (RI)” value with HL-60/ADR amounted to 1.31; with MCF-7/mdr, 1.23; in the experiment with IGROV-1/CDDP it was 0.33.
With `NCCCC[C@H](NC(=O)[C@H](Cc1c[nH]c2ccccc12)NC(=O)[C@H](Cc1c[nH]c2ccccc12)NC(=O)[C@H](CCCCN)NC(=O)[C@H](CCCCN)NC(=O)[C@H](Cc1c[nH]c2ccccc12)NC(=O)[C@H](Cc1ccc(-c2ccccc2)cc1)NC(=O)[C@H](CCCCN)NC(=O)[C@@H](N)CCCCN)C(N)=O` [LTX-313, K-K-Bip-W-K-K-W-W-K-NH2] (H-KK[Bip]WKKWWK-NH2; N-terminus assumed), the “Resistance index (RI)” value in the experiment with HL-60/ADR came to 1.16; in the experiment with MCF-7/mdr, 1.24; in the experiment on IGROV-1/CDDP it was 0.49; in the experiment with CCRF-CEM/VLB it was 0.76.
As for `N=C(N)NCCC[C@H](NC(=O)[C@H](Cc1c[nH]c2ccccc12)NC(=O)[C@H](Cc1c[nH]c2ccccc12)NC(=O)[C@H](CCCNC(=N)N)NC(=O)[C@H](CCCNC(=N)N)NC(=O)[C@@H](NC(=O)[C@H](Cc1c[nH]c2ccccc12)NC(=O)[C@H](CCCNC(=N)N)NC(=O)[C@@H](N)CCCNC(=N)N)C(c1ccccc1)c1ccccc1)C(N)=O` [LTX-320, R-R-W-Dip-R-R-W-W-R-NH2] (H-RRW[Dip]RRWWR-NH2; N-terminus assumed), the “Resistance index (RI)” value in the experiment on HL-60/ADR is 0.90; with MCF-7/mdr it was 1.19; in the experiment on IGROV-1/CDDP, 0.49.
With `NCCCC[C@@H](N)C(=O)N[C@H](CCCCN)C(=O)N[C@H](Cc1ccc(-c2ccccc2)cc1)C(=O)N[C@H](Cc1c[nH]c2ccccc12)C(=O)N[C@H](CCCCN)C(=O)N[C@H](CCCCN)C(=O)N[C@H](Cc1c[nH]c2ccccc12)C(=O)N[C@H](Cc1c[nH]c2ccccc12)C(=O)N[C@H](CCCCN)C(N)=O` [LTX-329, k-k-bip-w-k-k-w-w-k-NH2] (H-[dK][dK][dBip][dW][dK][dK][dW][dW][dK]-NH2; N-terminus assumed), the “Resistance index (RI)” value in the experiment with HL-60/ADR was determined as 0.80; with MCF-7/mdr, 1.07; in the experiment with IGROV-1/CDDP it was 0.46; in the experiment with CCRF-CEM/VLB, 0.76.
For the molecule “KAQ[Dip]QKQAW-NH2 [LTX-328, reference compound]”, the “internalization of Pacific Blue-labeled peptide” value in the experiment with A375 cells was “did not demonstrate any internalization”.
